Reference: patent publication US11479563B2, “Biphenyl compound or salt thereof” (TAIHO PHARMACEUTICAL CO., LTD., priority 2017, dated 2022)
Counter-ions that a name gives are not always drawn. Like-named read-outs stand apart in the source and are kept apart here.

Legend:
[1] = tested on: NCI-H146 cells (human small-cell lung cancer cell lines); assay: Cell-growth inhibition test: NCI-H146 cells; format: cell-based
Outline: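 NCI-H146 small-cell lung cancer cells were cultured with compound or DMSO for 10 days at 37°C, 5% CO2. Viability read by CellTiter-Glo luminescence; growth rate (%) = treated/DMSO luminescence × 100.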

[2] = tested on: HEL cells (human acute myelocytic leukemia cell lines); settings: read-out: Cell-Growth Inhibition Test: HEL Cells IC50;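 note: viable cell count by CellTiter-Glo 2.0 luminescence after 5 days of culture at 37 °C, growth expressed relative to DMSO-only wells as 100%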
[3] = tested on: NCI-H1417 cells (human small-cell lung cancer cell lines); settings: read-out: Cell-Growth Inhibition Test: NCI-H1417 Cells IC50;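 note: growth of NCI-H1417 cells over 10 days at 37 °C, read as viable-cell luminescence by CellTiter-Glo 2.0, expressed as % of DMSO-only control wells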
Procedure: (§1) Under the following conditions, an in vitro cell-growth inhibition test was performed with respect to HEL cells (human acute myelocytic leukemia cell lines), NCI-H1417 cells (human small-cell lung cancer cell lines), and NCI-H146 cells (human small-cell lung cancer cell lines).
(§2) The cells with the compound of the present invention or with dimethylsulfoxide alone were cultured at 37° C. in a 5% carbon-dioxide-containing incubator for 5 days (HEL cells) or 10 days (NCI-H1417 cells and NCI-H146 cells). After culture, the plate was allowed to stand at room temperature for 30 minutes, and 100 μL of the supernatant was removed from each well to leave 100 μL of the cell culture solution. To each well containing the remaining 100 μL of the cell culture solution, the same amount of CellTiter-Glo 2.0 Assay (Promega, Cat #: G9242) was added. The microplate was shaken with a plate mixer for 1 minute and then allowed to stand in a dark place for 10 minutes. Thereafter, the luminescence intensity of viable cells in each well was measured using a microplate reader (PerkinElmer, EnSpire). […] Cell growth rate (%)=T/C×100 T: The luminescence intensity in a well to which the compound of the present invention was added (count per second) C: The luminescence intensity in a well to which dimethylsulfoxide alone was added (count per second)

[4] = tested on: NCI-H1417 cells (human small-cell lung cancer cell lines); assay: cells; settings: NCI-H1417, read-out: Cell-Growth Inhibition Test: NCI-H1417 Cells IC50 (nM);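 note: growth of NCI-H1417 cells over 10 days at 37 °C, read as viable-cell luminescence by CellTiter-Glo 2.0, expressed as % of DMSO-only control wells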
Procedure: as §1, §2

[5] = molecular target: T1, human LSD1 protein (Homo sapiens, UniProt O60341); assay: Measurement of LSD1 inhibitory activity (in vitro); format: biochemical
T1 construct: purchased Abcam ab80379
Procedure: To measure the inhibitory activity, first, the compound of the present invention was serially diluted in dimethylsulfoxide (DMSO). Sequentially, the solution of the compound of the present invention in DMSO (final concentration of DMSO: 5%) and human LSD1 protein (Abcam, ab80379) were added to a reaction buffer (25 mM Tris-HCl (pH 7.5), 50 mM KCl, 2 mM CHAPS, 1 mM DTT, 0.02% BSA). The mixture was preincubated at 25° C. for 30 minutes. […] Tranylcypromine (final concentration: 3 mM) was then added thereto to terminate the reaction.

[6] = tested on: HEL cells (human acute myelocytic leukemia cell lines); assay: cells; settings: read-out: Cell-Growth Inhibition Test: HEL Cells IC50 (nM);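 note: viable cell count by CellTiter-Glo 2.0 luminescence after 5 days of culture at 37 °C, growth expressed relative to DMSO-only wells as 100%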
[7] = NCI-H146 cells, read-out: Cell-Growth Inhibition Test: NCI-H146 Cells IC50
[8] = Homo sapiens, NCI-H146, read-out: Cell-Growth Inhibition Test: NCI-H146 Cells IC50
[9] = Homo sapiens, NCI-H146, read-out: Cell-Growth Inhibition Test: NCI-H146 Cells IC50 (nM)
[10] = human LSD1 protein, H3K4 (Me1)-biotin-labeled peptide 200 nM, preincubated 30 minutes, read-out: LSD1 inhibitory activity IC50

Molecule	IC50 [1, 7] [nM]	IC50 [2] [pM]	IC50 [3] [pM]	IC50 [1, 8] [nM]	IC50 [4] [nM]	IC50 [5] [pM]	IC50 [6] [nM]	IC50 [1, 9] [nM]	IC50 [5, 10] [pM]
2′-(6,7-difluoro-1-(2-hydroxy-2-methylpropyl)-1H-indol-5-yl)-3-fluoro-5′-(2,7-diazaspiro[3.4]octane-6-carbonyl)-[1,1′-biphenyl]-4-carbonitrile [Example 200]	2.31	3720	1230						
3-fluoro-2′-(6-fluoro-1-(2-hydroxy-2-methylpropyl)-1H-indazol-5-yl)-5′-(2,7-diazaspiro[3.4]octane-6-carbonyl)-[1,1′-biphenyl]-4-carbonitrile [Example 199]	5.45	22000	4550						
Cc1c(F)c(-c2ccc(C(=O)N3[C@@H]4CC[C@H]3[C@@H](N)C4)cc2-c2ccc(C#N)c(F)c2)cc2nnn(CC3(O)CCC3)c12 (single isomer, unassigned) [Example 270]	0.37	260	180						
Cc1ccc(-c2ccc(CN3[C@H]4CC[C@@H]3[C@H](N)C4)cc2-c2ccc([N+](=O)[O-])cc2)cc1 (single isomer, unassigned) [Example 296, dihydrochloride]		5830	37600						
Cc1noc2cc(-c3ccc(C(=O)N4[C@@H]5CC[C@H]4C[C@@H](N)C5)cc3-c3ccc(C#N)c(F)c3)c(F)cc12 [Example 179, 5′-((3-endo)-3-amino-8-azabicyclo[3.2.1]octane-8-carbonyl)-3-fluoro-2′-(5-fluoro-3-methylbenzo[d]isoxazol-6-yl)-[1,1′-biphenyl]-4-carbonitrile]	1.05	1520	3360						
Cn1cc(C(N)=O)c2cc(-c3ccc(C(=O)N4C5CCC4C(N)C5)cc3-c3ccc(C#N)c(F)c3)c(F)cc21 [Example 236, 5-(5-((1S,2S,4R)-rel-2-amino-7-azabicyclo[2.2.1]heptane-7-carbonyl)-4′-cyano-3′-fluoro-[1,1′-biphenyl]-2-yl)-6-fluoro-1-methyl-1H-indole-3-carboxyamide-isomer-X]				28.5	11	280			
CCC(O)(CC)Cn1nnc2cc(-c3ccc(CN4C5CCC4C(N)C5)cc3-c3ccc(C#N)c(F)c3)c(F)c(F)c21 [Example 293, 5′-(((1S,2S,4R)-rel-2-amino-7-azabicyclo[2.2.1]heptan-7-yl)methyl)-2′-(1-(2-ethyl-2-hydroxybutyl)-6,7-difluoro-1H-benzo[d][1,2,3]triazol-5-yl)-3-fluoro-[1,1′-biphenyl]-4-carbonitrile-isomer-X dihydrochloride]					0.22		0.081	0.08	
CC(C)(O)Cn1nnc2cc(-c3ccc(CN4C5CCC4C(N)C5)cc3-c3ccc(C#N)c(F)c3)c(F)c(Br)c21 [Example 294, 5′-(((1S,2S,4R)-rel-2-amino-7-azabicyclo[2.2.1]heptan-7-yl)methyl)-2′-(7-bromo-6-fluoro-1-(2-hydroxy-2-methylpropyl)-1H-benzo[d][1,2,3]triazol-5-yl)-3-fluoro-[1,1′-biphenyl]-4-carbonitrile-isomer-X dihydrochloride]					0.055		0.04	4.05	
CCC(O)(CC)Cn1nnc2cc(-c3ccc(CN4C5CCC4C(N)C5)cc3-c3ccc(C#N)c(F)c3)c(F)c(Br)c21 [Example 295, 5′-(((1S,2S,4R)-rel-2-amino-7-azabicyclo[2.2.1]heptan-7-yl)methyl)-2′-(7-bromo-1-(2-ethyl-2-hydroxybutyl)-6-fluoro-1H-benzo[d][1,2,3]triazol-5-yl)-3-fluoro-[1,1′-biphenyl]-4-carbonitrile-isomer-X dihydrochloride]					0.066		0.049	0.24	
CC(C)(O)Cn1ncc2cc(-c3ccc(CN4CC5CNCC5C4)cc3-c3ccc(C#N)c(F)c3)c(F)cc21 (stereo not drawn) [Example 297, 3-fluoro-2′-(6-fluoro-1-(2-hydroxy-2-methylpropyl)-1H-indazol-5-yl)-5′-((hexahydropyrrolo[3,4-c]pyrrol-2(1H)-yl)methyl)-[1,1′-biphenyl]-4-carbonitrile dihydrochloride]				8.26	3.8		2.68		400
CC(C)(O)Cn1ncc2cc(-c3ccc(CN4CC5(CCCNC5)C4)cc3-c3ccc(C#N)c(F)c3)c(F)cc21 [Example 298, 5′-((2,6-diazaspiro[3.5]nonan-2-yl)methyl)-3-fluoro-2′-(6-fluoro-1-(2-hydroxy-2-methylpropyl)-1H-indazol-5-yl)-[1,1′-biphenyl]-4-carbonitrile dihydrochloride]				1	1.72		0.46		200
CC(C)(O)Cn1ncc2cc(-c3ccc(CN4[C@@H]5CC[C@H]4C[C@@H](N)C5)cc3-c3ccc(C#N)c(F)c3)c(F)cc21 [Example 299, 5′-((3-endo)-amino-8-azabicyclo[3.2.1]octan-8-yl)methyl)-3-fluoro-2′-(6-fluoro-1-(2-hydroxy-2-methylpropyl)-1H-indazol-5-yl)-[1,1′-biphenyl]-4-carbonitrile dihydrochloride]				< 1.37	0.949	200	0.43		
CC(C)(O)Cn1ncc2cc(-c3ccc(CN4CCC5(CNC5)C4)cc3-c3ccc(C#N)c(F)c3)c(F)cc21 [Example 300, 5′-((2,6-diazaspiro[3.4]octan-6-yl)methyl)-3-fluoro-2′-(6-fluoro-1-(2-hydroxy-2-methylpropyl)-1H-indazol-5-yl)-[1,1′-biphenyl]-4-carbonitrile dihydrochloride]				0.7	1.53		0.6		230
